Assay results taken from BindingDB's records for doi:10.1021/jm00095a029 (Warner-Lambert, 1992).
Non-standard residues stand in square brackets, D forms with d. Residues, ends and D or L forms follow the SMILES beside them.

Tested on: Endothelin A receptor
Test: ChEBML_63192

- IC50: 400 nM
SMILES: CC[C@H](C)[C@H](NC(=O)[C@H](CC(=O)O)NC(=O)[C@H](CC(C)C)NC(=O)[C@@H](Cc1ccc(O)cc1)NC(C)=O)C(=O)N[C@H](C(=O)N[C@@H](Cc1c[nH]c2ccccc12)C(=O)O)[C@@H](C)CC (Ac-[dY]LDIIW-OH)
